Measurements reported in PubChem BioAssay AID624254 (Broad Institute, 2012).
Activity calls are given as the source filed them. The rule behind the calls is not given here.

Assay: Luciferase light induction in v cholerae bh1651, agonist dose response, confirmatory (AID 624254)
Conditions: V. cholerae BH1651 luxOD47E, luciferase light induction, 6 h; at 50 µM (top of the series)

Row | SMILES | activation (light increase)
1 | COc1ccccc1CCNC(=O)C(=O)NCCC1CCCCN1S(=O)(=O)c1cccs1 (stereo not drawn) | inactive
2 | COC(=O)[C@H]1C[C@H](C(=O)O)[C@@H](C)C1(C)C | inactive
3 | CCOC(=O)c1c(-c2ccccc2)csc1NC(=O)c1nn(CC)cc1Br | inactive
4 | COc1ccccc1N1CCN(C(=O)c2cc3c(s2)CCC3)CC1 | inactive
5 | CCCN1CCN(C(=O)CCCNC(=O)Cn2cnc3sc(C)c(C)c3c2=O)CC1 | inactive
6 | NC(=O)c1cc(Br)cc(C2CCCCC2)c1O | inactive
7 | CN(CC(=O)NCCN1CCOCC1)S(=O)(=O)c1ccc(Cl)cc1 | inactive
8 | CCN1CCN(C(=O)c2ccc(COc3ccc(Cl)cc3)o2)CC1 | inactive
9 | O=C(Oc1ccnc2cc(Cl)ccc12)N1CCCCCC1 | inactive
10 | COCCCNC(=O)c1ccc2c(=O)n(C3CCCC3)c(=S)[nH]c2c1 | inactive
11 | O=C(NCC1CCCO1)C1CCN(C(=O)c2ccc(Cl)cc2)CC1 (stereo not drawn) | inactive
12 | Nc1nnc(SCC(=O)Nc2ccc3c(c2)OCCO3)s1 | inactive
13 | O=C(NCc1ccco1)c1cc2n(n1)C(C(F)(F)F)CC(c1ccc(Cl)c(Cl)c1)N2 (stereo not drawn) | inactive
14 | CCN1CCCC1CNC(=O)c1cc(OC)c(OC)c(OC)c1 (stereo not drawn) | inactive
15 | Cc1onc(-c2ccccc2)c1C(=O)N1CCOCC1 | inactive
16 | CC(=O)Nc1ccc(Nc2nc(C)nc3c2oc2ccccc23)cc1 | inactive
17 | CCOC(=O)c1sc2cc([N+](=O)[O-])cc(SCCO)c2c1N | inactive
18 | O=C(Cc1ccc2c(c1)CCCC2)Nc1ccccc1Br | inactive
19 | O=C(c1cc2ccccc2cc1O)N1CCN(c2ccccc2O)CC1 | inactive
20 | Cc1ccccc1C(=O)Nc1ccc(-c2nc3ccc(C(=O)c4ccccc4)cc3[nH]2)cc1 | inactive
21 | COc1ccc(S(=O)(=O)N2CCCC(C(=O)NCc3ccncc3)C2)cc1 (stereo not drawn) | inactive
22 | COc1ccccc1NS(=O)(=O)c1cn(C)cn1 | inactive
23 | O=C(c1ccc2c(c1)OCO2)N(Cc1ccco1)C1(C(=O)NC2CCCCC2)CCCCC1 | inactive
24 | CCc1ccc(-c2ccc(C(=O)O)n2C)cc1 | inactive
25 | CC(=O)c1cc2c(cc1NS(=O)(=O)c1ccccc1)OCO2 | inactive

Row | SMILES | activation (light increase)
26 | COC(C(=O)Nc1ccccc1C(=O)N1CCOCC1)c1ccccc1 (stereo not drawn) | inactive
27 | COc1ccc(CCNC(=O)c2nnn(-c3ccc4c(c3)OCCO4)c2N)cc1OC | inactive
28 | COC(=O)c1cc(C(=O)OCC(=O)c2ccc3c(c2)NC(=O)CO3)cc([N+](=O)[O-])c1 | inactive
29 | COc1ccc(Cl)cc1NC(=O)COC(=O)c1cc(C)oc1C | inactive
30 | COc1ccc(CCN(C)C(=O)c2cc(S(=O)(=O)N3CCCCCC3)ccc2OC)cc1OC | inactive
31 | CCCCCn1c(SCC(=O)OCC)nc2cc(C(=O)N3CCC(C(N)=O)CC3)ccc2c1=O | inactive
32 | CC(C)CCOc1cccc(OCC(=O)N(C)C2CCS(=O)(=O)C2)c1 (stereo not drawn) | inactive
33 | COc1cc(NC(=O)CN2C(=O)NC(c3ccccc3)(c3ccccc3)C2=O)cc(OC)c1 | inactive
34 | CN(Cc1cn[nH]c1-c1cc2ccccc2o1)CC1CCOCC1 | inactive
35 | COc1cccc(-c2nc(OC(C)C)c3ccccc3n2)c1 | inactive
36 | Cc1cc2oc(=O)cc(CN3CCC(C)CC3)c2cc1Cl | inactive
37 | CCC1Nc2ncnc(N3CCN(c4ccccc4)CC3)c2N(Cc2ccccc2)C1=O (stereo not drawn) | inactive
38 | Cc1ccc(C)c(S(=O)(=O)Nc2ccc(-n3cnnn3)cc2)c1 | inactive
39 | CC(=O)N1CCC(=O)N(C(C)C)c2ccccc21 | inactive
40 | CCCNC(=O)COC(=O)/C=C/c1ccc(C)o1 | inactive
41 | Cc1ccc(S(=O)(=O)NCCC(=O)OCC(=O)N(Cc2ccccc2)C(C)(C)C)cc1C | inactive
42 | CCOC(=O)c1c(NC(=S)Nc2ccc(Cl)cc2)sc(C)c1C | inactive
43 | CCc1ccc(-c2ccc(C(=O)O)n2CC)cc1 | inactive
44 | Cn1cnc(S(=O)(=O)Nc2ccc(Cl)cc2)c1 | inactive
45 | CCC(C)Cn1c(S(=O)(=O)O)nc2ccccc21 (stereo not drawn) | inactive
46 | COc1ccc(OC)c(NC(=O)COC(=O)c2cc3c(s2)CCC3)c1 | inactive
47 | CCOc1ccccc1N(CC(=O)Nc1ccc2c(c1)OCCO2)S(C)(=O)=O | inactive
48 | O=S(=O)(Nc1ccccn1)c1ccccc1 | inactive
49 | Cc1ccccc1-n1nnnc1-c1ccccc1 | inactive
50 | COc1ccc(S(=O)(=O)N2CCOCC2)cc1NC(=O)CSc1nnc(C2CC2)n1C1CC1 | inactive

Row | SMILES | activation (light increase)
51 | COc1ccc(/C(N)=N/OC(=O)Cc2ccccc2OC)cc1 | inactive
52 | Cc1cccc(OCC(=O)N(C)CCc2ccccn2)c1 | inactive
53 | C=CCN1C(=O)c2ccc(C(=O)N(CC)CC(=O)Nc3cc(Cl)ccc3C)cc2C1=O | inactive
54 | Cc1ccc(S(=O)(=O)N2Cc3ccccc3CC2C(=O)Nc2ccc3c(c2)OCO3)cc1 (stereo not drawn) | inactive
55 | COc1ccc(OCc2nnc3n2N=C(c2ccc(OC)cc2)CS3)cc1 | inactive
56 | Cc1cccc(NC(=O)c2ccc(Oc3ccccc3)cc2)n1 | inactive
57 | C[C@H](CO)N1C[C@H](C)[C@@H](CN(C)S(=O)(=O)c2ccc(Cl)cc2)Oc2c(NC(=O)Nc3ccc4c(c3)OCO4)cccc2C1=O | inactive
58 | Cc1ccc(OCCCC(=O)N(C)CC(=O)Nc2ccccc2Cl)cc1 | inactive
59 | Cc1ccc(N(C(C)C(=O)N2CCCCC2)S(C)(=O)=O)cc1C (stereo not drawn) | inactive
60 | CCC(C)(C)n1nnnc1CN1CCN(c2nc3ccc(C)cc3cc2C#N)CC1 | inactive
61 | O=C(Cc1ccc2c(c1)CCCC2)Nc1ccccc1Cl | inactive
62 | O=S(=O)(Nc1cccnc1)c1ccc(Oc2ccccc2)cc1 | inactive
63 | Cc1cccc(NC(=O)CSc2nc(=O)n(CCN3CCOCC3)c3c2CCCC3)c1C | inactive
64 | CC1(C)Nc2ccc(O)cc2-c2c1ssc2=S | inactive
65 | CCc1sc(N(C(=O)Cc2ccccc2)c2ccc(F)cc2)nc1-c1ccccc1 | inactive
66 | Cc1cc(COc2ccccc2O)on1 | inactive
67 | Cc1cc(C(F)(F)F)c2c(N)c(C(=O)NC3CC3)sc2n1 | inactive
68 | CCOC(=O)CSc1nc(C)cc(C)c1C#N | inactive
69 | Cc1ccccc1C(=O)Nc1cccc(N)c1 | inactive
70 | CN(C)c1nc(N)ncc1-c1ccc(Oc2ccccc2)cc1 | inactive
71 | Cc1occc1-c1nnc(SCC(=O)NCc2cccs2)n1-c1ccc(F)cc1 | inactive
72 | Cc1ccc(CN(Cc2cc3cc(C)ccc3[nH]c2=O)C(=O)N2CCOCC2)cc1 | inactive
73 | COc1ccc(N(CC(=O)NC2CCCCC2)C(=O)CNC(=O)c2ccco2)c(OC)c1 | inactive
74 | Cn1cnc(S(=O)(=O)Nc2ccc(-c3ccccc3)cc2)c1 | inactive
75 | CCc1nc(NCCCN2CCOCC2)c2oc3ccccc3c2n1 | inactive

Row | SMILES | activation (light increase)
76 | CC(C)N1CCc2c(sc(NC(=O)c3ccc4ccccc4c3)c2C(N)=O)C1 | inactive
77 | CC(=O)Nc1ccc(NC(=O)c2ccccc2C)cc1 | inactive
78 | CCOC(=O)c1c(C)[nH]c(C(=O)COC(=O)C2(C)CC2(Cl)Cl)c1C (stereo not drawn) | inactive
79 | Cc1cccc(NC(=O)CS(=O)(=O)c2cn(C)c3ccccc23)c1C | inactive
80 | CCCOc1cc(C)c(S(=O)(=O)NCCOC)cc1C | inactive
81 | CSc1ccccc1NC(=O)COc1ccc(S(=O)(=O)N2CCCC2)cc1 | inactive
82 | C=Cn1c(C(=O)O)ccc1-c1ccc(CC)cc1 | inactive
83 | O=c1ncn(-c2cccc(Cl)c2)c2ccccc12 | inactive
84 | CC(=O)Nc1ccc(NS(=O)(=O)c2cn(C)cn2)cc1 | inactive
85 | COc1ccccc1CNC(=O)c1ccc(S(=O)(=O)N(C)c2ccccc2)cc1 | inactive
86 | Cc1onc(-c2ccccc2)c1C(=O)n1cccn1 | inactive
87 | CC(C)OC(=O)CSc1nnc(SCc2cccc3ccccc23)s1 | inactive
88 | CCCn1nnnc1NCc1ccc(OC)cc1OC | inactive
89 | Cc1ccc(S(=O)(=O)Nc2cc(C(=O)NCCN(C)C)ccc2N2CCCCC2)cc1 | inactive
90 | O=c1c2cc(Br)ccc2nc(-c2cccc(C(F)(F)F)c2)n1O | inactive
91 | Cc1noc(C)c1NC(=O)Nc1cccc2c1O[C@H](CN(C)S(=O)(=O)c1cccs1)[C@@H](C)CN([C@@H](C)CO)C2=O | inactive
92 | CCc1ccc(S(=O)(=O)Nc2ccc(Br)cn2)cc1 | inactive
93 | Cc1noc(C)c1NC(=O)Nc1cccc2c1O[C@@H](CN(C)S(=O)(=O)c1cccs1)[C@H](C)CN([C@@H](C)CO)C2=O | inactive
94 | CCN(CC(=O)Nc1c(F)cccc1F)C(=O)C1CC(=O)N(c2ccccc2OC)C1 (stereo not drawn) | inactive
95 | Cc1cccc(-c2noc(CN(C(=O)C34CC5CC(CC(C5)C3)C4)C(C)C)n2)c1 | inactive
96 | C[C@@H]1CN([C@@H](C)CO)C(=O)c2cccc(NC(=O)C3CC3)c2O[C@@H]1CN(C)S(=O)(=O)c1cccs1 | inactive
97 | COc1ccc(NC(=O)CN(C)C(=O)c2cccc(S(=O)(=O)N3CCN(C)CC3)c2)cc1 | inactive
98 | CC1CCN(c2ccccc2NC(=O)c2cc3ccccc3o2)CC1 | inactive
